According to US20190031599A1, “INDANE DERIVATIVES AS MGLUR7 MODULATORS” (Takeda Pharmaceutical Company Limited, priority 2016, published 2019):
pEC50: −log10 of the molar value.

target: T1, human mGluR7 (Homo sapiens, UniProt Q14831); assay: mGluR7 assay: CRE-directed luciferase reporter gene assay, reduction of forskolin stimulated cAMP production; assay type: cell-based; conditions: stable CHO cell line expressing the CRE-luc reporter and human mGluR7 genes; decrease of forskolin stimulated luminescence; 10-point concentration-response, duplicate wells
T1 construct: expressed in transfected cells
Procedure, shortened: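 Stable CHO cell line co-expressing human mGluR7 and a CRE-luciferase reporter; compounds preincubated 15 min at 37 °C, then forskolin added and incubated 5 h at 37 °C. 10-point half-log concentration-response in duplicate, normalised to forskolin-alone (max) and forskolin plus tool mGluR7 agonist (min) controls.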

T1 sequence (Q14831 35-915): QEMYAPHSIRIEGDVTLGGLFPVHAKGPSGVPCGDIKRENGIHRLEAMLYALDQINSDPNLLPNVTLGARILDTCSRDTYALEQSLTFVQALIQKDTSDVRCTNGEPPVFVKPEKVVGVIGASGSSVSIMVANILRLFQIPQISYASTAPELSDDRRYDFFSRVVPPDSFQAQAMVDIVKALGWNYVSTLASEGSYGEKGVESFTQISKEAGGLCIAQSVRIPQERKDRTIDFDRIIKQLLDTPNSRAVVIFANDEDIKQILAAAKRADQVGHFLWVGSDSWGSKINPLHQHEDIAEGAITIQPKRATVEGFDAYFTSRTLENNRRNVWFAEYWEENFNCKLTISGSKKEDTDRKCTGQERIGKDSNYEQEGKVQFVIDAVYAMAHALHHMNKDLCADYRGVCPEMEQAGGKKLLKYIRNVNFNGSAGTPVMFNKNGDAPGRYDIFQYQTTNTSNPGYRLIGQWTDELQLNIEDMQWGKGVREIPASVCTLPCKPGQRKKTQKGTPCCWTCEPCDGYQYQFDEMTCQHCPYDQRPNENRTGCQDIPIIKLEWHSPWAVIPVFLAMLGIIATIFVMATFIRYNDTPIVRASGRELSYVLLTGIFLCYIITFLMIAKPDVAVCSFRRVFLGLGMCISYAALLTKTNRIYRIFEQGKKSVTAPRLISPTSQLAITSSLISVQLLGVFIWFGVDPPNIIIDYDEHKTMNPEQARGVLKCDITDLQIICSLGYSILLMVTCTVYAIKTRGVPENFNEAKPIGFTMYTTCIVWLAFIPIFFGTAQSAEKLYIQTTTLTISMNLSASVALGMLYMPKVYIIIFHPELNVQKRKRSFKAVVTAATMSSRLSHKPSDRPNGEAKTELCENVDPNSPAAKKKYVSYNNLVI

Row | pEC50 | Structure (SMILES)
1 | 6.49 | CC(C(=O)N[C@H]1Cc2ccccc2[C@@H]1NC(=O)OC(C)(C)C)c1ccc(F)cc1C(F)(F)F (stereo partly drawn) [Example 154, tert-butyl N-[(1S,2S)-2-{2-[4-fluoro-2-(trifluoromethyl)phenyl]propanamido}-2,3-dihydro-1H-inden-1-yl]carbamate]
2 | 5.65 | CN[C@@H]1c2ccccc2C[C@H]1NC(=O)[C@H](C)c1ccc(F)cc1 [Example 155, (2R)-2-(4-fluorophenyl)-N-[(1R,2R)-1-(methylamino)-2,3-dihydro-1H-inden-2-yl]propanamide]
3 | 5.86 | CN[C@H]1c2ccccc2C[C@@H]1NC(=O)[C@H](C)c1ccc(F)cc1 [Example 157, (2R)-2-(4-fluorophenyl)-N-[(1S,2S)-1-(methylamino)-2,3-dihydro-1H-inden-2-yl]propanamide]
4 | 5.23 | CN[C@@H]1c2ccccc2C[C@@H]1NC(=O)[C@@H](C)c1ccc(F)cc1 [Example 160, (2S)-2-(4-fluorophenyl)-N-[(1R,2S)-1-(methylamino)-2,3-dihydro-1H-inden-2-yl]propanamide]

More lines, now with the values behind:

Row | Structure (SMILES) | pEC50
5 | CC(C(=O)N[C@H]1Cc2ccccc2[C@@H]1NC(=O)OC(C)(C)C)c1ccc(OC(F)F)cc1 (stereo partly drawn) [Example 151, tert-butyl N-[(1S,2S)-2-{2-[4-(difluoromethoxy)phenyl]propanamido}-2,3-dihydro-1H-inden-1-yl]carbamate] | 6.36
6 | COc1cc(F)ccc1C(C)C(=O)N[C@H]1Cc2ccccc2[C@@H]1NC(=O)OC(C)(C)C (stereo partly drawn) [Example 152, tert-butyl N-[(1S,2S)-2-[2-(4-fluoro-2-methoxyphenyl)propanamido]-2,3-dihydro-1H-inden-1-yl]carbamate] | 6.74
7 | CC(C(=O)N[C@H]1Cc2ccccc2[C@@H]1NC(=O)OC(C)(C)C)c1ccc(F)cc1Cl (stereo partly drawn) [Example 153, tert-butyl N-[(1S,2S)-2-[2-(2-chloro-4-fluorophenyl)propanamido]-2,3-dihydro-1H-inden-1-yl]carbamate] | 7.20
